Measurements as given in PMC10353549 (ACS Pharmacology & Translational Science, 2023).
Several values for one entry are separate records, joined by “and”; a condition that tells them apart may be missing. Identical values can stand only once. Like-named read-outs stand apart in the source and are kept apart here. Marks after values point to notes of the source that are not given here. Values belong to the molecule of their own block, whether it stands above or below them. Where a SMILES comes first, the peptide text is derived from it. [ ]: non-standard residue; d: D form. The star is where a group is joined. 1Nal = N[C@@H](Cc1cccc2ccccc12)C(=O)O; Nicotinoyl(6-F) = O=C(c1ccc(F)nc1)*; Cha = N[C@@H](CC1CCCCC1)C(=O)O; NMeS = CN[C@@H](CO)C(=O)O; hSer = N[C@@H](CCO)C(=O)O; Nle = CCCC[C@H](N)C(=O)O; Octanoyl = CCCCCCCC(=O)*; Abu = CC[C@H](N)C(=O)O; Dap = NC[C@H](N)C(=O)O; Inp = O=C(O)C1CCNCC1

Legend:
[1] = human serum; cited from earlier work
GHSR = GHSR (Homo sapiens, UniProt Q92847); assay: cell-based
Chain of GHSR (Q92847 whole entry, species assumed): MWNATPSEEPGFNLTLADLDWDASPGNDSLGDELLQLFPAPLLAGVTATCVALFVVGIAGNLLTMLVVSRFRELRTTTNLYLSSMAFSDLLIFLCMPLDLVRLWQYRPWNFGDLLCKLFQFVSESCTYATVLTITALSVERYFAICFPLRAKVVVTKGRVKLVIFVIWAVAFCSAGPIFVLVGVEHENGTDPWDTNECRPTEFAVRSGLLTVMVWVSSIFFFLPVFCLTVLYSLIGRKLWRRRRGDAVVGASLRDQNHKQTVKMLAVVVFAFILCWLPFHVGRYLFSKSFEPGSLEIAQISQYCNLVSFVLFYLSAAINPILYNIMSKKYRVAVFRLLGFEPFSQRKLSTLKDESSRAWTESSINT

[2] = Chemical stability in buffer; assay type: physicochemical; conditions: for chemical stability in buffer: 37 °C, over 24 h
[3] = Human liver S9 fraction stability; assay type: in vitro ADME; conditions: for half-life at 3 μM: human, pooled human liver S9 fraction
[4] = molecular target: T1, growth hormone secretagogue receptor 1a (GHSR) (Homo sapiens, UniProt Q92847); assay: biochemical
[5] = molecular target: T1, growth hormone secretagogue receptor 1a (GHSR); conditions: read-out: IC50 (GHSR affinity); previous work; cited from earlier work
Target sequence in this assay (Q92847 whole entry, species assumed): as above

Human serum stability = assay type: in vitro ADME
[6] = human serum from human male AB plasma; conditions: 37 °C, up to 24 h
[7] = molecular target: growth hormone secretagogue receptor 1a, eYFP tagged (GHSR-eYFP) (UniProt Q92847); assay: radioligand binding
Chain of growth hormone secretagogue receptor 1a, eYFP tagged (GHSR-eYFP) (Q92847 whole entry): as the sequence (Q92847 whole entry, species assumed) above

[8] = pH 7.4, S9 t1/2, pooled human liver S9 fraction 1 mg/mL, peptide 3 μM, 37 °C, over 4 h
[9] = human liver S9 fraction, over 4 h

Molecule: CC(C)C[C@H](NC(=O)[C@H](Cc1cccc2ccccc12)NC(=O)[C@H](CNC(=O)c1ccc(F)nc1)NC(=O)[C@H](CO)NC(=O)C1CCNCC1)C(=O)N[C@@H](CO)C(=O)N1CCC[C@H]1C(=O)N[C@H](C(N)=O)[C@@H](C)O [compound 1, [Inp^1,Dpr^3(6-FN),1Nal^4,Thr^8]ghrelin(1–8) amide] (H-[Inp]S[Dap](Nicotinoyl(6-F))[1Nal]LSPT-NH2)
Serum t1/2 [1]: 4.7 ^a h | EC50 (GHSR): 8 nM | chemical stability in buffer [2]: chemically stable | remaining at 24 h, 1 mM ([2]; phosphate-buffered saline, pH 7.4): 100% | time after which peptide was completely degraded in human liver S9 fraction ([3]; human liver S9 fraction, 37 °C): 4 h | half-life at 3 μM [3, 8]: 1.1 h | S9 t1/2 ([3]; pooled human liver S9 fraction 1 mg/mL, peptide 3 μM, 37 °C, over 4 h): 1.08 h | IC50 [4]: 0.09 nM | IC50 [5]: 0.11 nM

Molecule: CCCCCCCC(=O)NC[C@H](NC(=O)[C@H](CO)NC(=O)CN)C(=O)N[C@@H](Cc1ccccc1)C(=O)N[C@@H](CC(C)C)C(=O)N[C@@H](CO)C(=O)N1CCC[C@H]1C(=O)N[C@@H](CCC(=O)O)C(=O)O [compound 2, [Dpr^3(n-octanoyl)]ghrelin(1–8)] (H-GS[Dap](Octanoyl)FLSPE-OH)
chemical stability in buffer [2]: chemically stable | half-life at 3 μM ([3]; pH 7.4): 0.57 h | Serum t1/2 (Human serum stability; 25% human serum in PBS pH 7.4, 37 °C, peptide 1 mM, over 24 h): 2.0 h | time after which peptide was completely degraded in human serum (Human serum stability; human serum, 37 °C): 6 h

Molecule: CC(C)C[C@@H](NC(=O)[C@H](Cc1cccc2ccccc12)NC(=O)[C@H](CNC(=O)c1ccc(F)nc1)NC(=O)[C@H](CO)NC(=O)C1CCNCC1)C(=O)N[C@@H](CO)C(=O)N1CCC[C@H]1C(=O)N[C@H](C(N)=O)[C@@H](C)O [compound 9, Inp-S-Dpr(6-FN)-1Nal-lSPT-NH2] (H-[Inp]S[Dap](Nicotinoyl(6-F))[1Nal][dL]SPT-NH2)
stability in human liver S9 fraction [3, 9]: completely stable | half-life at 3 μM [3, 8]: > 4 h | IC50 [4]: 56.5 ± 6.5 nM | stability in human serum (Human serum stability; human serum, over 24 h): completely stable

Molecule: CC(C)C[C@H](NC(=O)[C@H](Cc1cccc2ccccc12)NC(=O)[C@H](CNC(=O)c1ccc(F)nc1)NC(=O)[C@H](CO)NC(=O)C1CCNCC1)C(=O)N[C@H](CO)C(=O)N1CCC[C@H]1C(=O)N[C@H](C(N)=O)[C@@H](C)O [compound 10, Inp-S-Dpr(6-FN)-1Nal-LsPT-NH2] (H-[Inp]S[Dap](Nicotinoyl(6-F))[1Nal]L[dS]PT-NH2)
half-life at 3 μM [3, 8]: > 4 h | IC50 [4]: 3.55 ± 0.25 nM

Molecule: CC(C)C[C@H](NC(=O)[C@H](Cc1cccc2ccccc12)NC(=O)[C@H](CNC(=O)c1ccc(F)nc1)NC(=O)[C@H](CO)NC(=O)C1CCNCC1)C(=O)N[C@@H](C(=O)N1CCC[C@H]1C(=O)N[C@H](C(N)=O)[C@@H](C)O)[C@H](C)O [compound 12, Inp-S-Dpr(6-FN)-1Nal-LtPT-NH2] (H-[Inp]S[Dap](Nicotinoyl(6-F))[1Nal]L[dT]PT-NH2)
half-life at 3 μM [3, 8]: > 4 h | IC50 [4]: 2.52 ± 0.32 nM

Molecule: CCCC[C@H](NC(=O)[C@H](Cc1cccc2ccccc12)NC(=O)[C@H](CNC(=O)c1ccc(F)nc1)NC(=O)[C@H](CO)NC(=O)C1CCNCC1)C(=O)N[C@@H](CO)C(=O)N1CCC[C@H]1C(=O)N[C@H](C(N)=O)[C@@H](C)O [compound 13, Inp-S-Dpr(6-FN)-1Nal-Nle-SPT-NH2] (H-[Inp]S[Dap](Nicotinoyl(6-F))[1Nal][Nle]SPT-NH2)
half-life at 3 μM [3, 8]: 0.55 h | IC50 [4]: 1.5 ± 0.27 nM

Molecule: C[C@@H](O)[C@H](NC(=O)[C@@H]1CCCN1C(=O)[C@H](CO)NC(=O)[C@H](CC1CCCCC1)NC(=O)[C@H](Cc1cccc2ccccc12)NC(=O)[C@H](CNC(=O)c1ccc(F)nc1)NC(=O)[C@H](CO)NC(=O)C1CCNCC1)C(N)=O [compound 14, Inp-S-Dpr(6-FN)-1Nal-Cha-SPT-NH2] (H-[Inp]S[Dap](Nicotinoyl(6-F))[1Nal][Cha]SPT-NH2)
half-life at 3 μM [3, 8]: 1.18 h | IC50 [4]: 1.88 ± 0.67 nM

Molecule: CC(C)C[C@H](NC(=O)[C@H](Cc1cccc2ccccc12)NC(=O)[C@H](CNC(=O)c1ccc(F)nc1)NC(=O)[C@H](CO)NC(=O)C1CCNCC1)C(=O)N[C@@H](CS)C(=O)N1CCC[C@H]1C(=O)N[C@H](C(N)=O)[C@@H](C)O [compound 15, Inp-S-Dpr(6-FN)-1Nal-LCPT-NH2] (H-[Inp]S[Dap](Nicotinoyl(6-F))[1Nal]LCPT-NH2)
half-life at 3 μM [3, 8]: 0.95 h | IC50 [4]: 7.15 ± 0.18 nM

Molecule: CC(C)C[C@H](NC(=O)[C@H](Cc1cccc2ccccc12)NC(=O)[C@H](CNC(=O)c1ccc(F)nc1)NC(=O)[C@H](CO)NC(=O)C1CCNCC1)C(=O)N[C@H](C(=O)N1CCC[C@H]1C(=O)N[C@H](C(N)=O)[C@@H](C)O)[C@@H](C)O [compound 16, Inp-S-Dpr(6-FN)-1Nal-LTPT-NH2] (H-[Inp]S[Dap](Nicotinoyl(6-F))[1Nal]LTPT-NH2)
half-life at 3 μM [3, 8]: 1.25 h | IC50 [4]: 0.62 ± 0.1 nM

Molecule: CC(C)C[C@H](NC(=O)[C@H](Cc1cccc2ccccc12)NC(=O)[C@H](CNC(=O)c1ccc(F)nc1)NC(=O)[C@H](CO)NC(=O)C1CCNCC1)C(=O)N[C@@H](CCO)C(=O)N1CCC[C@H]1C(=O)N[C@H](C(N)=O)[C@@H](C)O [compound 17, Inp-S-Dpr(6-FN)-1Nal-L-Hse-PT-NH2] (H-[Inp]S[Dap](Nicotinoyl(6-F))[1Nal]L[hSer]PT-NH2)
half-life at 3 μM [3, 8]: 1.4 h | IC50 [4]: 1.43 ± 0.08 nM

Molecule: CC(C)C[C@H](NC(=O)[C@H](Cc1cccc2ccccc12)NC(=O)[C@H](CNC(=O)c1ccc(F)nc1)NC(=O)[C@H](CO)NC(=O)C1CCNCC1)C(=O)N[C@@H](CC(N)=O)C(=O)N1CCC[C@H]1C(=O)N[C@H](C(N)=O)[C@@H](C)O [compound 18, Inp-S-Dpr(6-FN)-1Nal-LNPT-NH2] (H-[Inp]S[Dap](Nicotinoyl(6-F))[1Nal]LNPT-NH2)
half-life at 3 μM [3, 8]: > 4 h | IC50 [4]: 1.9 ± 0.56 nM

Molecule: CC(C)C[C@H](NC(=O)[C@H](Cc1cccc2ccccc12)NC(=O)[C@H](CNC(=O)c1ccc(F)nc1)NC(=O)[C@H](CO)NC(=O)C1CCNCC1)C(=O)N[C@@H](CCC(N)=O)C(=O)N1CCC[C@H]1C(=O)N[C@H](C(N)=O)[C@@H](C)O [compound 19, Inp-S-Dpr(6-FN)-1Nal-LQPT-NH2] (H-[Inp]S[Dap](Nicotinoyl(6-F))[1Nal]LQPT-NH2)
half-life at 3 μM [3, 8]: 2.03 h | IC50 [4]: 1.21 ± 0.12 nM

Molecule: CC[C@H](NC(=O)[C@H](CC(C)C)NC(=O)[C@H](Cc1cccc2ccccc12)NC(=O)[C@H](CNC(=O)c1ccc(F)nc1)NC(=O)[C@H](CO)NC(=O)C1CCNCC1)C(=O)N1CCC[C@H]1C(=O)N[C@H](C(N)=O)[C@@H](C)O [compound 20, Inp-S-Dpr(6-FN)-1Nal-L-Abu-PT-NH2] (H-[Inp]S[Dap](Nicotinoyl(6-F))[1Nal]L[Abu]PT-NH2)
EC50 (GHSR): 30 nM | half-life at 3 μM [3, 8]: 0.46 h | IC50 [4]: 2.54 ± 0.65 nM

Molecule: CC(C)C[C@H](NC(=O)[C@H](Cc1cccc2ccccc12)NC(=O)[C@H](CNC(=O)c1ccc(F)nc1)NC(=O)[C@H](CO)NC(=O)C1CCNCC1)C(=O)N(C)[C@@H](CO)C(=O)N1CCC[C@H]1C(=O)N[C@H](C(N)=O)[C@@H](C)O [compound 22, Inp-S-Dpr(6-FN)-1Nal-L-S(N-Me)-PT-NH2] (H-[Inp]S[Dap](Nicotinoyl(6-F))[1Nal]L[NMeS]PT-NH2)
EC50 (GHSR): 119 nM | stability in human liver S9 fraction [3, 9]: stable | half-life at 3 μM [3, 8]: > 4 h | IC50 [4]: 1.32 ± 0.58 nM | stability in human serum (Human serum stability; human serum, over 24 h): stable

not cleaved [6]: full stability over 24 h
Molecule: Inp-S-Dpr(6-FN)-1Nal-L-Dpr-PT-NH2

not cleaved [6]: stable; serum t1/2 >24 h
Molecule: Inp-S-Dpr(6-FN)-1Nal-L-S(N-Me)-PT-NH2

cleaved bond [6]: Leu5-Ser6, first_seen, 30 min | fragment found [6]: 4; 1Nal-L-OH and 5; Inp-S-Dpr(6-FNA)-OH
Molecule: Inp-S-Dpr(6-FN)-1Nal-LSPT-NH2

not cleaved [6]: completely stable; serum t1/2 >24 h
Molecule: Inp-S-Dpr(6-FN)-1Nal-lSPT-NH2

IC50 [7]: 2.48 nM
Molecule: acylated human ghrelin(1–28) (ligand)

IC50 [7]: 11.5 nM
Molecule: ghrelin(1–8) analogue 11, Inp-S-Dpr(6-FN)-1Nal-lsPT-NH2 (peptide)

IC50 [7]: 0.32 nM
Molecule: ghrelin(1–8) analogue 21, Inp-S-Dpr(6-FN)-1Nal-L-Dpr-PT-NH2 (peptide)

IC50 [7]: 2.11 nM
Molecule: ghrelin(1–8) analogue 23, Inp-S-Dpr(6-FN)-1Nal-β-homoL-SPT-NH2 (peptide)
